Data on 25 compounds can be found in US12503475B2 (Centessa Pharmaceuticals (UK) Limited, priority 2020, dated 2025).

The target in the assay is T1, human orexin type 2 receptor (hOX2R) (Homo sapiens, UniProt O43614).
T1 construct: expressed in transfected cells
T1 sequence (O43614 1-444): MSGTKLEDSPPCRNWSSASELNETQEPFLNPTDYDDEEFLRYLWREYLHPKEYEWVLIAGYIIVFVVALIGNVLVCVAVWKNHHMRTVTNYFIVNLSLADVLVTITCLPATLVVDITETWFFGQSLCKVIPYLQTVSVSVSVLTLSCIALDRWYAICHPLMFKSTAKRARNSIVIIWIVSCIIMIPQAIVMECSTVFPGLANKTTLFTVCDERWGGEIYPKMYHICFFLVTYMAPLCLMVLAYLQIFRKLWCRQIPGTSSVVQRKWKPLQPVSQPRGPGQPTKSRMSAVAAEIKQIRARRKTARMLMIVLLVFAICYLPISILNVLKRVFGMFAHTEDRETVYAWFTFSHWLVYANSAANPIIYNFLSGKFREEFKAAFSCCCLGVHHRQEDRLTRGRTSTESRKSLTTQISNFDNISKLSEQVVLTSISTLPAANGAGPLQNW
Put plainly: Measurement of orexin type 2 receptor agonist activity (FLIPR calcium fluorescence). In kind it is cell-based. Conditions: CHO cells expressing hOX2R, FLIPR calcium fluorescence; for EC50: read-out: hOx2 pEC50 (converted); for Emax: CHO, read-out: hOx2 Emax (%). As to the method: The biological activity of the compounds of the present disclosure may be determined in cells stably expressing either orexin type 2 or orexin type 1 receptor. […] The agonist activity of a compound of the present disclosure may be determined by fluorescence value.
Stable cell line generation.
Measurement of orexin type 2 receptor agonist activity. […] As used herein, E. indicates the value at 10 μM concentration when orexin A is converted to a full agonist (maximum value of agonist activity. 100%).

`CCS(=O)(=O)NC1C(Cc2cccc(-c3ccccc3)c2)N(C(=O)N2CCC2)CC12CC2` (racemic) [Compound 3]: the EC50 was 1 to 10 nM and the Emax is 90 to 100%.

Take `CS(=O)(=O)NC1C(Cc2cccc(-c3ccccc3)c2)N(C(=O)C(F)(F)F)CC12CC2` (racemic) [Compound 4, N-(6-([1,1′-biphenyl]-3-ylmethyl)-5-(2,2,2-trifluoroacetyl)-5-azaspiro[2.4]heptan-7-yl)methanesulfonamide]: the EC50 is 100 to 1000 nM and the Emax is 60 to 70%.

As to `CS(=O)(=O)NC1C(Cc2cccc(-c3ccccc3)c2)N(C(=O)C(F)F)CC12CC2` (racemic) [Compound 5, N-(6-([1,1′-biphenyl]-3-ylmethyl)-5-(2,2-difluoroacetyl)-5-azaspiro[2.4]heptan-7-yl)methanesulfonamide], the EC50 was 100 to 1000 nM and the Emax lay in the range of 90 to 100%.

On to `CCS(=O)(=O)NC1C(Cc2cccc(-c3ccccc3)c2)N(C(=O)OC)CC12CC2` (racemic) [Compound 6, methyl 6-([1,1′-biphenyl]-3-ylmethyl)-7-(ethylsulfonamido)-5-azaspiro[2.4]heptane-5-carboxylate], for which the EC50 is 100 to 1000 nM and the Emax was 70 to 80%.

Take `CCS(=O)(=O)NC1C(Cc2cccc(-c3ccccc3)c2)N(C(=O)C(C)C)CC12CC2` (racemic) [Compound 7, N-(6-([1,1-biphenyl]-3-ylmethyl)-5-isobutyryl-5-azaspiro[2.4]heptan-7-yl)ethanesulfonamide]: the EC50 is 1 to 10 nM and the Emax is 90 to 100%.

With `CC(C)C(=O)N1CC2(CC2)C(NS(C)(=O)=O)C1Cc1cccc(-c2cccc(F)c2)c1` (racemic) [Compound 8, N-(6-((3′-fluoro-[1,1′-biphenyl]-3-yl)methyl)-5-isobutyryl-5-azaspiro[2.4]heptan-7-yl)methanesulfonamide], the EC50 was 1 to 10 nM and the Emax is 90 to 100%.

Take `CC(F)(F)C(=O)N1CC2(CC2)C(NS(C)(=O)=O)C1Cc1cccc(-c2ccccc2)c1` (racemic) [Compound 9, N-(6-([1,1′-biphenyl]-3-ylmethyl)-5-(2,2-difluoropropanoyl)-5-azaspiro[2.4]heptan-7-yl)methanesulfonamide]: the EC50 is 100 to 1000 nM and the Emax was 40 to 50%.

In the case of `CS(=O)(=O)NC1C(Cc2cccc(-c3ccccc3)c2)N(C(=O)N2CC(F)(F)C2)CC12CC2` (racemic) [Compound 10, N-(6-([1,1′-biphenyl]-3-ylmethyl)-5-(3,3-difluoroazetidine-1-carbonyl)-5-azaspiro[2.4]heptan-7-yl)methanesulfonamide], the EC50 is 100 to 1000 nM and the Emax was in the range of 90 to 100%.

Regarding `CS(=O)(=O)NC1C(Cc2cccc(-c3ccccc3)c2)N(C(=O)N2CC(F)C2)CC12CC2` (racemic) [Compound 11, N-(6-([1,1′-biphenyl]-3-ylmethyl)-5-(3-fluoroazetidine-1-carbonyl)-5-azaspiro[2.4]heptan-7-yl)methanesulfonamide], the EC50 was 10 to 100 nM and the Emax was in the range of 90 to 100%.

`CS(=O)(=O)NC1C(Cc2cccc(-c3ccccc3)c2)N(C(=O)C2CC(F)(F)C2)CC12CC2` (racemic) [Compound 12, N-(6-([1,1-biphenyl]-3-ylmethyl)-5-(3,3-difluorocyclobutane-1-carbonyl)-5-azaspiro[2.4]heptan-7-yl)methanesulfonamide]: the EC50 was 100 to 1000 nM and the Emax was in the range of 80 to 90%.

Regarding `CC(C)(F)C(=O)N1CC2(CC2)C(NS(C)(=O)=O)C1Cc1cccc(-c2ccccc2)c1` (racemic) [Compound 13, N-(6-([1,1′-biphenyl]-3-ylmethyl)-5-(2-fluoro-2-methylpropanoyl)-5-azaspiro[2.4]heptan-7-yl)methanesulfonamide], the EC50 was 100 to 1000 nM and the Emax was in the range of 80 to 90%.

As for `COC(=O)N1CCC2(CC2)C(NS(C)(=O)=O)C1Cc1cccc(-c2ccccc2)c1` (racemic) [Compound 14, methyl 5-([1,1′-biphenyl]-3-ylmethyl)-4-(methylsulfonamido)-6-azaspiro[2.5]octane-6-carboxylate], the EC50 is > 1000 nM and the Emax lay within 90 to 100%.

As to `CC(C)C(=O)N1CC2(CC2)C(NS(C)(=O)=O)C1Cc1cccc(-c2ccccc2)c1` (racemic) [Compound 15, N-(6-([1,1′-biphenyl]-3-ylmethyl)-5-isobutyryl-5-azaspiro[2.4]heptan-7-yl)methanesulfonamide], the EC50 is 10 to 100 nM and the maximal response (Emax) is 90 to 100%.

Regarding `CS(=O)(=O)NC1C(Cc2cccc(-c3ccccc3)c2F)N(C(=O)N2CCC2)CC12CC2` (racemic) [Compound 18, N-(5-(azetidine-1-carbonyl)-6-((2-fluoro-[1,1′-biphenyl]-3-yl)methyl)-5-azaspiro[2.4]heptan-7-yl)methanesulfonamide], the EC50 is 1 to 10 nM and the Emax lay in the range of 90 to 100%.

As to `CC(C)(C)C(=O)N1CC2(CC2)C(NS(C)(=O)=O)C1Cc1cccc(-c2cccc(F)c2)c1F` (racemic) [Compound 23], the EC50 is 10 to 100 nM and the Emax fell in the range of 90 to 100%.

Turning to `CC(F)(F)C(=O)N1CC2(CC2)C(NS(C)(=O)=O)C1Cc1cccc(-c2cccc(F)c2)c1F` (racemic) [Compound 24, N-(6-((2,3′-difluoro-[1,1′-biphenyl]-3-yl)methyl)-5-(2,2-difluoropropanoyl)-5-azaspiro[2.4]heptan-7-yl)methanesulfonamide], the EC50 is 10 to 100 nM and the Emax fell in the range of 80 to 90%.

For `CC(C)(O)C(=O)N1CC2(CC2)C(NS(C)(=O)=O)C1Cc1cccc(-c2cc(F)cc(F)c2)c1F` (racemic) [Compound 28, N-(5-(2-hydroxy-2-methylpropanoyl)-6-((2,3′,5′-trifluoro-[1,1′-biphenyl]-3-yl)methyl)-5-azaspiro[2.4]heptan-7-yl)methanesulfonamide], the EC50 was 10 to 100 nM and the Emax fell in the range of 90 to 100%.

Take `CS(=O)(=O)NC1C(Cc2cccc(-c3cc(F)cc(F)c3)c2F)N(C(=O)C2CCC2)CC12CC2` (racemic) [Compound 29, N-(5-(cyclobutanecarbonyl)-6-((2,3′,5′-trifluoro-[1,1′-biphenyl]-3-yl)methyl)-5-azaspiro[2.4]heptan-7-yl)methanesulfonamide]: the EC50 is 0.0794 to 1 nM and the maximal response (Emax) lay in the range of 90 to 100%.

For `CS(=O)(=O)NC1C(Cc2cccc(-c3cc(F)cc(F)c3)c2F)N(C(=O)N2CCC2)CC12CC2` (racemic) [Compound 30, N-(5-(azetidine-1-carbonyl)-6-((2,3′,5′-trifluoro-[1,1′-biphenyl]-3-yl)methyl)-5-azaspiro[2.4]heptan-7-yl)methanesulfonamide], the EC50 is 0.0794 to 1 nM and the Emax lay in the range of 90 to 100%.

On to `CC(C)C(=O)N1CC2(CC2)C(NS(=O)(=O)CF)C1Cc1cccc(-c2ccccc2)c1` (racemic) [Compound 36, N-(6-([1,1′-biphenyl]-3-ylmethyl)-5-isobutyryl-5-azaspiro[2.4]heptan-7-yl)-1-fluoromethanesulfonamide], for which the EC50 was 1 to 10 nM and the Emax fell in the range of 90 to 100%.

As for `CC[C@@H](O)C(=O)N1CC2(CC2)C(NS(C)(=O)=O)C1Cc1cccc(-c2ccccc2)c1` (mixture of isomers) [Compound 37, N-(6-([1,1′-biphenyl]-3-ylmethyl)-5-((R)-2-hydroxybutanoyl)-5-azaspiro[2.4]heptan-7-yl)methanesulfonamide], the EC50 was 10 to 100 nM and the Emax was in the range of 90 to 100%.

For the compound `CCNC(=O)N1CC2(CC2)C(NS(C)(=O)=O)C1Cc1cccc(-c2ccccc2)c1F` (racemic) [Compound 38, N-ethyl-6-((2-fluoro-[1,1′-biphenyl]-3-yl)methyl)-7-(methylsulfonamido)-5-azaspiro[2.4]heptane-5-carboxamide], the EC50 is 1 to 10 nM and the Emax is 90 to 100%.

`CCNC(=O)N1CC2(CC2)C(NS(C)(=O)=O)C1Cc1cccc(-c2ccccc2)c1OC` (racemic) [Compound 44, N-ethyl-6-((2-methoxy-[1,1′-biphenyl]-3-yl)methyl)-7-(methylsulfonamido)-5-azaspiro[2.4]heptane-5-carboxamide]: the EC50 is 1 to 10 nM and the Emax lay in the range of 80 to 90%.

In the case of `CS(=O)(=O)NC1C(Cc2cccc(-c3ccccc3)c2F)N(C(=O)N2CC(F)C2)CC12CC2` (racemic) [Compound 45, N-(6-((2-fluoro-[1,1′-biphenyl]-3-yl)methyl)-5-(3-fluoroazetidine-1-carbonyl)-5-azaspiro[2.4]heptan-7-yl)methanesulfonamide], the EC50 is 1 to 10 nM and the Emax lay in the range of 90 to 100%.

For `COC1CN(C(=O)N2CC3(CC3)C(NS(C)(=O)=O)C2Cc2cccc(-c3ccccc3)c2F)C1` (racemic) [Compound 46, N-(6-((2-fluoro-[1,1′-biphenyl]-3-yl)methyl)-5-(3-methoxyazetidine-1-carbonyl)-5-azaspiro[2.4]heptan-7-yl)methanesulfonamide], the EC50 is 10 to 100 nM and the Emax was 90 to 100%.

For orientation: Emax means the maximal effect, on the per cent scale that the assay sets.
